Experiment [1] relates to Human Thrombocytes. Nature of the experiment: Fibrinogen Binding to Human Thrombocytes (I125-fibrinogen, gel-filtered platelets). Particulars: inhibition of I125-fibrinogen binding to gel-filtered human platelets, ADP, 20 minutes, ambient temperature; read-out: Fibrinogen Binding test IC50. How it is done: 1. Fibrinogen Binding to Human Thrombocytes Blood obtained by puncture of an antecubital vein was anticoagulated with trisodium citrate (final concentration: 13 mM) and centrifuged for 10 minutes at 170 *g. The supernatant platelet-rich plasma was placed on a Sepharose 2B column (Pharmacia) and eluted with a solution of 90 mM common salt, 14 mM trisodium citrate, 5 mM glucose and 50 mM tris(hydroxymethyl)aminomethane, adjusted to pH 7.4. The gel-filtered platelets (GFP) appearing in front of the plasma proteins were used for the binding tests. 50 μl of a 60 mM calcium chloride solution, 50 μl of a 0.6 mM adenosine diphosphate solution, 100 μl of substance solution or solvent and 50 μl of fibrinogen solution (containing 3 μg I125-fibrinogen) were added to 750 μl of GFP and incubated for 20 minutes at ambient temperature. The non-specific binding was measured in the presence of 3 mg/ml of cold fibrinogen. 900 μl of the incubate were carefully pipetted onto 250 μl of silicon oil (AP 38: AR 20, 1:2 v/v, Wacker Chemie) in Eppendorf vessels and centrifuged for 2 minutes at 10,000 *g. The aqueous supernatant and some of the oil were removed, the tip of the vessel with the platelet pellet was cut off and the quantity of bound fibrinogen was measured in a gamma-counter. The concentration of substance which inhibited fibrinogen binding by 50% was calculated from a series of concentrations and given as the IC50.

Experiment [2] relates to thrombocyte aggregation in platelet-rich plasma. Kind of experiment: Antithrombotic effect: collagen-induced thrombocyte aggregation in platelet-rich plasma (Born and Cross). It counts as cell-based. Particulars: human platelet-rich plasma, 10 minutes preincubation at 37° C., read-out: Inhibition of platelet aggregation EC50. The protocol: 2. Antithrombotic Effect Method: The thrombocyte aggregation was measured in platelet-rich plasma from healthy test subjects using the Born and Cross method (J. Physiol. 170: 397 (1964)). In order to inhibit coaggulation the blood was mixed with 3.14% sodium citrate in a ratio by volume of 1:10. Collagen-induced aggregation: The decrease in the optical density of the platelet suspension was measured photometrically and recorded after the addition of the aggregation-initiating substance. The speed of aggregation was concluded from the angle of inclination of the density curve. The point on the curve at which there was maximum transmittance was used to calculate the optical density. The quantity of collagen used was as little as possible but sufficient to give an irreversible reaction curve. Standard commercial collagen produced by Hormonchemie of Munich was used. Before the addition of collagen the plasma was incubated with the substance for 10 minutes at 37° C. From the measurements obtained, an EC50 was determined graphically, relating to a 50% change in the optical density in terms of inhibiting aggregation.

Among the data in patent publication US5276049A, “Cyclic urea derivatives, pharmaceutical compositions containing these compounds and methods of using the same” (Dr. Karl Thomae GmbH, priority 1991, dated 1994) are IC50 and EC50 values, retold here.

Counter-ions that a name gives are not always drawn.

One may read the IC50 as the midpoint of a concentration-inhibition curve. One may read the EC50 as the concentration at which the effect is half-maximal. Consider `COC(=O)CCc1ccc(-n2c(C)cn(-c3ccc(C(=N)N)cc3)c2=O)cc1` [2(115), 1-(4-amidino-phenyl)-3-[4-(2-methoxycarbonyl-ethyl)-phenyl]-4-methyl-3H-imidazol-2-one hydrochloride], for which the half-maximal inhibitory concentration (IC50) in experiment [1] is 530 nM. Also, in experiment [2], the half-maximal effective concentration (EC50) amounted to 80 nM.
The like results for `COC(=O)CCn1cc(-c2ccc(-c3ccc(C(=N)N)cc3)cc2)n(C)c1=O` [2(105), 4-(4'-amidino-4-biphenylyl)-1-(2-methoxycarbonyl-ethyl)-3-methyl-3H-imidazol-2-one hydrochloride] were, in that order, 28000 nM and 1100 nM.
The like results for `CCOC(=O)CCN1CCCN(c2ccc(-c3ccc(C(=N)N)cc3)cc2)C1=O` [2(4), 1-(4'-amidino-4-biphenylyl)-3-(2-ethoxycarbonyl-ethyl)-3,4,5,6-tetrahydro-1H-pyrimidin-2-one hydrochloride] were, in that order, 15000 nM and 42000 nM.
The like results for `CC(C)(CC(=O)O)c1ccc(N2CCN(c3ccc(C(=N)N)cc3)C2=O)cc1` [1(51), 1-(4-amidino-phenyl)-3-[4-(3-carboxy-2-methyl-2-propyl)-phenyl]-imidazolidin-2-one] were, in that order, 3600 nM and 13000 nM.
In the case of `NCc1ccc(N2CCN(c3ccc(CCC(=O)O)cc3)C2=O)cc1` [1(59)], the IC50 in experiment [1] worked out at 150 nM. The EC50 in experiment [2] turned out to be 350 nM.
As for `NCc1ccc(N2CCN(c3ccc(CC(N)C(=O)O)cc3)C2=O)cc1` (stereo not shown) [1(149), 1-[4-(2-amino-2-carboxy-ethyl)-phenyl]-3-(4-aminomethyl-phenyl)-imidazolidin-2-one], the IC50 in experiment [1] is 470 nM. Also, the EC50 in experiment [2] worked out at 1300 nM.
Taken in the same sequence, the figures for `N=C(N)c1ccc(-n2ccn(-c3ccc(CC(C(=O)O)N(Cc4ccccc4)Cc4ccccc4)cc3)c2=O)cc1` (stereo not shown) [1(150), 1-(4-amidino-phenyl)-3-[4-(2-carboxy-2-dibenzylamino-ethyl)-phenyl]-3H-imidazol-2-one] were 370 nM and 9900 nM.
The like results for `CN1C(=O)N(c2ccc(CCC(=O)O)cc2)CC1c1ccc(C(=N)N)cc1` (stereo not shown) [4(16), 4-(4-amidino-phenyl)-1-[4-(2-carboxy-ethyl)-phenyl]-3-methyl-imidazolidin-2-one hydrochloride] were, in that order, 1500 nM and 1900 nM.
The like results for `COC(=O)CCc1ccc(N2C(=O)CN(c3ccc(C(=N)NC(=O)OC)cc3)C2=O)cc1` [5(13), 1-(4-methoxycarbonylamidino-phenyl)-3-[4-(2-methoxycarbonyl-ethyl)-phenyl]-imidazolidin-2,4-dione] were, in that order, over 10000 nM and 24000 nM.
Regarding `N=C(N)c1ccc(-c2ccc(N3CC(=O)N(CCC(=O)O)C3=O)cc2)cc1` [1(2), 1-(4'-amidino-4-biphenylyl)-3-(2-carboxy-ethyl)-imidazolidin-2,4-dione], the 50% inhibitory concentration (IC50) in experiment [1] is 96 nM. Besides, the EC50 in experiment [2] came to 320 nM.
Consider `COC(=O)CCn1cc(-c2ccc(-c3ccc(C(=N)N)cc3)cc2)n(-c2ccccc2)c1=O` [2(106), 4-(4'-amidino-4-biphenylyl)-1-(2-methoxycarbonyl-ethyl)-3-phenyl-3H-imidazol-2-one hydrochloride], for which the half-inhibitory concentration (IC50) in experiment [1] worked out at 2700 nM. The half-maximal effective concentration (EC50) in experiment [2] was 6600 nM.
The like results for `N=C(N)c1ccc(-n2ccn(-c3ccc(C=CC(=O)O)cc3)c2=O)cc1` [1(147), 1-(4-amidino-phenyl)-3-[4-(2-carboxy-ethenyl)-phenyl]-3H-imidazol-2-one] were, in that order, 27 nM and 160 nM.
The like results for `COC(=O)CCc1ccc(N2CCN(c3ccc(C(=N)N)cc3)C2=O)cc1` [2(6), 1-(4-amidino-phenyl)-3-[4-(2-methoxycarbonyl-ethyl)-phenyl]-imidazolidin-2-one hydrochloride] were, in that order, 240 nM and 160 nM.
Taken in the same sequence, the figures for `COC(=O)CN1CCCN(c2ccc(-c3ccc(C(=N)N)cc3)cc2)C1=O` [2(5), 1-(4'-amidino-4-biphenylyl)-3-methoxycarbonylmethyl-3,4,5,6-tetrahydro-1H-pyrimidin-2-one hydrochloride] were 5600 nM and 25000 nM.
Consider `NCc1ccc(N2CCN(c3ccc(OCC(=O)O)cc3)C2=O)cc1` [1(141), 1-(4-aminomethyl-phenyl)-3-(4-carboxymethyloxyphenyl)-imidazolidin-2-one], for which, in experiment [1], the IC50 was 310 nM. In addition, the concentration giving a half-maximal response (EC50) in experiment [2] worked out at 630 nM.
`N=C(N)c1ccc(N2CCN(c3ccc(S(=O)(=O)CC(=O)O)cc3)C2=O)cc1` [1(50), 1-(4-amidino-phenyl)-3-(4-carboxymethylsulphonylphenyl)-imidazolidin-2-one]: the IC50 in experiment [1] was 45 nM. Further, in experiment [2], the EC50 was found to be 290 nM.
The like results for `N=C(N)c1ccc(N2CC(=O)N(c3ccc(CCC(=O)O)cc3)C2=O)cc1` [1(62), 1-(4-amidino-phenyl)-3-[4-(2-carboxy-ethyl)-phenyl]-imidazolidin-2,4-dione] were, in that order, 13 nM and 40 nM.
Take `N=C(N)c1ccc(-c2ccc(N3CCN(CCC(=O)O)S3(=O)=O)cc2)cc1` [1(21), 2-(4'-amidino-4-biphenylyl)-5-(2-carboxy-ethyl)-3,4-dihydro-2H,5H-1,2,5-thiadiazol-1,1-dioxide]: in experiment [1], the half-maximal inhibitory concentration (IC50) amounted to 31 nM. Further, in experiment [2], the concentration giving a half-maximal response (EC50) turned out to be 620 nM.
For `N=C(N)c1ccc(-c2ccc(-c3cn(CCC(=O)O)c(=O)[nH]3)cc2)cc1` [1(117), 4-(4'-amidino-4-biphenylyl)-1-(2-carboxy-ethyl)-3H-imidazol-2-one hydrochloride], the 50% inhibitory concentration (IC50) in experiment [1] stood at 230 nM. Besides, the concentration for a half-maximal effect (EC50) in experiment [2] was determined as 5400 nM.
On to `N=C(N)c1ccc(-n2ncn(-c3ccc(CCC(=O)O)cc3)c2=O)cc1` [1(145), 2-(4-amidino-phenyl)-4-[4-(2-carboxy-ethyl)-phenyl]-4H-1,2,4-triazol-3-one], for which the IC50 in experiment [1] was found to be 7.7 nM. In experiment [2], the EC50 is 50 nM.
The like results for `N=C(N)c1ccc(N2CCCN(c3ccc(CCC(=O)O)cc3)C2=O)cc1` [1(7), 1-(4-amidino-phenyl)-3-[4-(2-carboxy-ethyl)-phenyl]-3,4,5,6-tetrahydro-1H-pyrimidin-2-one] were, in that order, 2400 nM and 10000 nM.
Taken in the same sequence, the figures for `CCOC(=O)CCN1C(=O)CN(c2ccc(-c3ccc(C(=N)N)cc3)cc2)C1=O` [2(2), 1-(4'-amidino-4-biphenylyl)-3-(2-ethoxycarbonyl-ethyl)-imidazolidin-2,4-dione hydrochloride] were 25000 nM and 630 nM.
The like results for `COC(=O)CCc1ccc(N2CCN(c3ccc(CN)cc3C)C2=O)cc1` [8(5), 1-(4-aminomethyl-2-methyl-phenyl)-3-[4-(2-methoxycarbonyl-ethyl)-phenyl]-imidazolidin-2-one] were, in that order, 3000 nM and 5900 nM.
Turning to `CCOC(=O)CCn1ccn(-c2ccc(-c3ccc(C(=N)N)cc3)cc2)c1=O` [2(3), 1-(4'-amidino-4-biphenylyl)-3-(2-ethoxycarbonyl-ethyl)-3H-imidazol-2-one h ydrochloride], the IC50 in experiment [1] was found to be 18000 nM. In addition, the EC50 in experiment [2] stood at 3100 nM.
On to `N=C(N)c1ccc(N2CCN(C3CCC(CCC(=O)O)CC3)C2=O)cc1` (stereo not shown) [1(46), 1-(4-amidino-phenyl)-3-[4-(2-carboxy-ethyl)cyclohexyl]-imidazolidin-2-one], for which, in experiment [1], the half-inhibitory concentration (IC50) came out at 11 nM. The EC50 in experiment [2] turned out to be 40 nM.
In the case of `CCc1nn(-c2ccc(C(=N)N)cc2)c(=O)n1-c1ccc(CCC(=O)OC)cc1` [2(119), 2-(4-amidino-phenyl)-5-ethyl-4-[4-(2-methoxycarbonyl-ethyl)-phenyl]-4H-1,2,4-triazol-3-one hydrochloride], the IC50 in experiment [1] stood at 280 nM. For the same compound, the concentration for a half-maximal effect (EC50) in experiment [2] turned out to be 40 nM.
For `N=C(N)c1ccc(N2CCN(CCCCC(=O)O)C2=O)cc1` [1(77), -(4-amidino-phenyl)-3-(4-carboxy-butyl)-imidazolidin-2-one], the IC50 in experiment [1] was determined as 4900 nM. In addition, in experiment [2], the EC50 turned out to be 8000 nM.
As for `CCc1nn(-c2ccc(C(=N)N)cc2)c(=O)n1-c1ccc(CCC(=O)O)cc1` [1(140), 2-(4-amidino-phenyl)-4-[4-(2-carboxy-ethyl)-phenyl]-5-ethyl-4H-1,2,4-triazol-3-one], the IC50 in experiment [1] is 21 nM. For the same compound, in experiment [2], the EC50 worked out at 30 nM.
Consider `N=C(N)c1ccc(-n2ccn(-c3ccc(CC(N)C(=O)O)cc3)c2=O)cc1` (stereo not shown) [1(148), 1-(4-amidino-phenyl)-3-[4-(2-amino-2-carboxy-ethyl)-phenyl]-3H-imidazol-2-one], for which, in experiment [1], the IC50 stood at 25 nM. In addition, the EC50 in experiment [2] was determined as 110 nM.
